{"source": "ChEMBL document CHEMBL4715821", "about": "“Discovery of 4-ethoxy-7H-pyrrolo[2,3-d]pyrimidin-2-amines as potent, selective and orally bioavailable LRRK2 inhibitors” (Bioorg Med Chem Lett, 2018)", "key": {"[1]": {"molecular_target": "Tyrosine-protein kinase Tec (Homo sapiens) (UniProt P42680)", "sequence (P42680 whole entry, the tested form may be a part)": "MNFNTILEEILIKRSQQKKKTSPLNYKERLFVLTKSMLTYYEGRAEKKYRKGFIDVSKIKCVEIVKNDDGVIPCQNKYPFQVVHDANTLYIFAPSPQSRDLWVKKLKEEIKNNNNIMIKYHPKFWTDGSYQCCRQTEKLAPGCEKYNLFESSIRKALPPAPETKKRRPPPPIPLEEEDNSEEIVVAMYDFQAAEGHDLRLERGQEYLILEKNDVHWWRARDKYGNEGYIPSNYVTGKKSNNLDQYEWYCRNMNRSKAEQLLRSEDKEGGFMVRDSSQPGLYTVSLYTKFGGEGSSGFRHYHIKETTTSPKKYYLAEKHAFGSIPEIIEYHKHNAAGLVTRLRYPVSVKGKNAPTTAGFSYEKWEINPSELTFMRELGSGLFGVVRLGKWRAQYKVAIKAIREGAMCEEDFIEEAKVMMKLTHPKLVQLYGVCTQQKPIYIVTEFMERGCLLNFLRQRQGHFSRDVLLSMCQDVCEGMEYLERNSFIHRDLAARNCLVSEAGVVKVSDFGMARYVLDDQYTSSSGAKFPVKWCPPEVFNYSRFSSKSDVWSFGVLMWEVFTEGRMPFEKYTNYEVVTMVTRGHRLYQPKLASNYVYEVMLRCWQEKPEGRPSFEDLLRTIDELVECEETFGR", "test": "Inhibition of wild-type human partial length TEC (L341 to D620 residues) expressed in bacterial expression system assessed as residual activity at 1 uM by Kinomescan method relative to control"}, "[2]": {"molecular_target": "Voltage-gated inwardly rectifying potassium channel KCNH2 (Homo sapiens, UniProt Q12809)", "sequence (Q12809 whole entry)": "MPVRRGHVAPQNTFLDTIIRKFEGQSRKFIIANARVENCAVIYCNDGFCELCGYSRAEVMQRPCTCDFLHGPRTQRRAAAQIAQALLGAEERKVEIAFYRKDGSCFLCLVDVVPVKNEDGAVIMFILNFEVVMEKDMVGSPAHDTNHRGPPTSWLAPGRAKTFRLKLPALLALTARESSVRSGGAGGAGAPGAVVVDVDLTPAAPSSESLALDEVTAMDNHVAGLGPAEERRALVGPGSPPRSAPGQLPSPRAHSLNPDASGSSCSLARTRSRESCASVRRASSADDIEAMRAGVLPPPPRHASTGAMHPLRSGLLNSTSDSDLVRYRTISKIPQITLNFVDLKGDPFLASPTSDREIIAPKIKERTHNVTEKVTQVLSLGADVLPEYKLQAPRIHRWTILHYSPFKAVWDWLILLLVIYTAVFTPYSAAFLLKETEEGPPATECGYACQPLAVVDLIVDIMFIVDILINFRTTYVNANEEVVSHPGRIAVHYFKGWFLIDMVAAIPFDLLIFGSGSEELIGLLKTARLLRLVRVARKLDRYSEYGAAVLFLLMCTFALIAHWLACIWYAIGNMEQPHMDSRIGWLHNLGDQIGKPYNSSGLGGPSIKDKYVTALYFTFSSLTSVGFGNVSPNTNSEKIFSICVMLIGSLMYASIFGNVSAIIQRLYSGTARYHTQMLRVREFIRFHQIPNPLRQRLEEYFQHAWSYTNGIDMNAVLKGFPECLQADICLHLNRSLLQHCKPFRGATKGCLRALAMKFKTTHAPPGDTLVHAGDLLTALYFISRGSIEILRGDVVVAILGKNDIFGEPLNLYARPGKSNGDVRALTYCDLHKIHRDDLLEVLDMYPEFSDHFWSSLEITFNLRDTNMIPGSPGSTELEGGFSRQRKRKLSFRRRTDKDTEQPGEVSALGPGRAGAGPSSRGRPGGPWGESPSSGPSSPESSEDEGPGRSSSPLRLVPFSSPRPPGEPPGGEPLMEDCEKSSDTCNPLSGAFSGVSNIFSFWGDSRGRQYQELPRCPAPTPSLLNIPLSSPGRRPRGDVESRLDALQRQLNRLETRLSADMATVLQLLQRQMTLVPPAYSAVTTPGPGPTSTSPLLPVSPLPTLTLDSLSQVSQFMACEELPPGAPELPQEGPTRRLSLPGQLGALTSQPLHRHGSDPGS", "test": "Inhibition of human ERG"}, "[3]": {"test": "Artificial membrane permeability by PAMPA method", "format": "ADME", "conditions": "read-out: permeability"}, "[4]": {"molecular_target": "Homeodomain-interacting protein kinase 4 (Homo sapiens) (UniProt Q8NE63)", "test": "Inhibition of wild-type human partial length HIPK4 (M1 to V384 residues) expressed in bacterial expression system assessed as residual activity at 1 uM by Kinomescan method relative to control"}, "[5]": {"molecular_target": "Homeodomain-interacting protein kinase 3 (Homo sapiens) (UniProt Q9H422)", "test": "Inhibition of wild-type human partial length HIPK3 (M153 to N562 residues) expressed in mammalian expression system assessed as residual activity at 1 uM by Kinomescan method relative to control"}, "[6]": {"molecular_target": "Non-receptor tyrosine-protein kinase TNK1 (Homo sapiens) (UniProt Q13470)", "sequence (Q13470 whole entry, the tested form may be a part)": "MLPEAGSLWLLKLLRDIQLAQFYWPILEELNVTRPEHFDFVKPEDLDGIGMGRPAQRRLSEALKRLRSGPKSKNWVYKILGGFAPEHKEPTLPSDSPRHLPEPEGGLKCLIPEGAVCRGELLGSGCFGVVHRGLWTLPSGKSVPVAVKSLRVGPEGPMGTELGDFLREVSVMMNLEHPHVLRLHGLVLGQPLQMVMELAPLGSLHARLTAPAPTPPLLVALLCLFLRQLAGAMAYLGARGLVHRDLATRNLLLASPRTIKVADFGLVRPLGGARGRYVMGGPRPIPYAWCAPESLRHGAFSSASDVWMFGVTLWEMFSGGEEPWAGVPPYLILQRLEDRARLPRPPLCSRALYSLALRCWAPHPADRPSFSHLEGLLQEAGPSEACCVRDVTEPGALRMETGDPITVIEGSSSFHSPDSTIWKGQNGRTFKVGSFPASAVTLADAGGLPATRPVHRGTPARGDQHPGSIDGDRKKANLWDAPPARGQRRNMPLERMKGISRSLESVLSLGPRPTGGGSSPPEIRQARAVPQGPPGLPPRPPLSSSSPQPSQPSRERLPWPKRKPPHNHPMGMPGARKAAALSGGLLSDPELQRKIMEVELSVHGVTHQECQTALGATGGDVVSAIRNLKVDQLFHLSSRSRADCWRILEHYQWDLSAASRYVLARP", "test": "Inhibition of wild-type human full length TNK1 (M1 to P661 residues) expressed in bacterial expression system assessed as residual activity at 1 uM by Kinomescan method relative to control"}, "[7]": {"test": "Solubility of the compound in FaSSIF measured after 4 hrs", "format": "physicochemical"}, "[8]": {"molecular_target": "Rhodopsin kinase GRK1 (Homo sapiens) (UniProt Q15835)", "test": "Inhibition of wild-type human full length GRK1 (M1 to S563 residues) expressed in mammalian expression system assessed as residual activity at 1 uM by Kinomescan method relative to control"}, "[9]": {"molecular_target": "Dual specificity tyrosine-phosphorylation-regulated kinase 3 (Homo sapiens) (UniProt O43781)", "test": "Inhibition of DYRK3 (unknown origin) assessed as residual activity at 1 uM by Kinomescan method relative to control"}, "[10]": {"molecular_target": "Homeodomain-interacting protein kinase 2 (Homo sapiens) (UniProt Q9H2X6)", "test": "Inhibition of wild-type human partial length HIPK2 (M153 to S564 residues) expressed in mammalian expression system assessed as residual activity at 1 uM by Kinomescan method relative to control"}, "[11]": {"molecular_target": "Rho-associated protein kinase 1 (Homo sapiens) (UniProt Q13464)", "test": "Inhibition of wild-type human partial length ROCK1 (M1 to R415 residues) expressed in mammalian expression system assessed as residual activity at 1 uM by Kinomescan method relative to control"}, "[12]": {"molecular_target": "High affinity nerve growth factor receptor (Homo sapiens) (UniProt P04629)", "test": "Inhibition of wild-type human partial length TRKA (G475 to G790 residues) expressed in mammalian expression system assessed as residual activity at 1 uM by Kinomescan method relative to control"}, "[13]": {"test": "In vivo inhibition of LRRK2 in Han-Wistar rat assessed as reduction in Ser935 phosphorylation in brain at 30 mg/kg, po by Western blot analysis", "format": "functional", "design": "scale not given: the % may be the effect or the level left"}, "[14]": {"molecular_target": "Calcium/calmodulin-dependent protein kinase type IV (Homo sapiens) (UniProt Q16566)", "sequence (Q16566 whole entry, the tested form may be a part)": "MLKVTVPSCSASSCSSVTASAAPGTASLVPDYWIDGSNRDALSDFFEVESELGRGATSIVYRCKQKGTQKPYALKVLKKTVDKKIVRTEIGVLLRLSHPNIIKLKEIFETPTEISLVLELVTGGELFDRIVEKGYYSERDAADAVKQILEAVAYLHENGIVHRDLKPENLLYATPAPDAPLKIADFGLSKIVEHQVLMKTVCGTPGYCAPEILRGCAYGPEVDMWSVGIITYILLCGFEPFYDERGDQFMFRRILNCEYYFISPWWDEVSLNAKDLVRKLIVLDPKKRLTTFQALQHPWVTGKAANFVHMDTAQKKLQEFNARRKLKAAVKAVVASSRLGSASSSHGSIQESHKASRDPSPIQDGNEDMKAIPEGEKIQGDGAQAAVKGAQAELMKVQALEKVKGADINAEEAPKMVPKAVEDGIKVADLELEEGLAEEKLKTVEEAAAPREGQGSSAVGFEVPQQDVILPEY", "test": "Inhibition of wild-type human partial length CAMK4 (A22 to A322 residues) expressed in bacterial expression system assessed as residual activity at 1 uM by Kinomescan method relative to control"}, "[15]": {"molecular_target": "Ephrin type-A receptor 2 (Homo sapiens) (UniProt P29317)", "test": "Inhibition of wild type human partial length EPHA2 (T593 to V891 residues) expressed in bacterial expression system assessed as residual activity at 1 uM by Kinomescan method relative to control"}, "[16]": {"test": "Dose normalized AUC (0 to t) in Han-Wistar rat blood at 10 mg/kg, po measured up to 7 hrs by UPLC-MS/MS analysis", "format": "ADME, organism-based", "conditions": "in vivo"}, "[17]": {"molecular_target": "Activin receptor type-1-like (Homo sapiens) (UniProt P37023)", "sequence (P37023 whole entry, the tested form may be a part)": "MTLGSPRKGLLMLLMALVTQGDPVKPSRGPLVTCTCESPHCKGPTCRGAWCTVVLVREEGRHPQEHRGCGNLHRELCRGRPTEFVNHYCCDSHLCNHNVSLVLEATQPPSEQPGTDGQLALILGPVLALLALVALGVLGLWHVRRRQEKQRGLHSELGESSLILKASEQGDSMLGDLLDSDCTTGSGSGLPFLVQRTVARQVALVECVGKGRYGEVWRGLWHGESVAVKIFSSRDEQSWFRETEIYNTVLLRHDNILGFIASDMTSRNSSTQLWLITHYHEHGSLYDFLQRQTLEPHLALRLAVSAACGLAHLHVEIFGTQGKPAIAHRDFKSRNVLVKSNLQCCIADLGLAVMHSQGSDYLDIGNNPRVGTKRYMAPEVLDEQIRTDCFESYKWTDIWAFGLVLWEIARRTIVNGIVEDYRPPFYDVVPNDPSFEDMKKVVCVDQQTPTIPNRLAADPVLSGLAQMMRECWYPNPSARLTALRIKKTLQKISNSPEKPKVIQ", "test": "Inhibition of wild-type human partial length ACVRL1 (L164 to Q503 residues) expressed in bacterial expression system assessed as residual activity at 1 uM by Kinomescan method relative to control"}, "[18]": {"molecular_target": "Serine/threonine-protein kinase ULK3 (Homo sapiens) (UniProt Q6PHR2)", "test": "Inhibition of wild-type human partial length ULK3 (M1 to Q290 residues) expressed in mammalian expression system assessed as residual activity at 1 uM by Kinomescan method relative to control"}, "[19]": {"molecular_target": "Serine/threonine-protein kinase Nek9 (Homo sapiens) (UniProt Q8TD19)", "test": "Inhibition of wild-type human partial length NEK9 (P32 to R328 residues) expressed in bacterial expression system assessed as residual activity at 1 uM by Kinomescan method relative to control"}, "[20]": {"molecular_target": "Dual specificity tyrosine-phosphorylation-regulated kinase 1A (Homo sapiens) (UniProt Q13627)", "test": "Inhibition of wild-type human partial length DYRK1A (H129 to S509 residues) expressed in mammalian expression system assessed as residual activity at 1 uM by Kinomescan method relative to control"}, "[21]": {"molecular_target": "PAS domain-containing serine/threonine-protein kinase (Homo sapiens) (UniProt Q96RG2)", "test": "Inhibition of wild-type human partial length PASK (E942 to G1265 residues) expressed in mammalian expression system assessed as residual activity at 1 uM by Kinomescan method relative to control"}, "[22]": {"molecular_target": "CDC7/DBF4 (Cell division cycle 7-related protein kinase/Activator of S phase kinase) (Homo sapiens) (UniProt Q9UBU7+O00311)", "test": "Inhibition of CDC7/DBF4 (unknown origin) assessed as residual activity at 1 uM by Kinomescan method relative to control", "format": "protein-complex assay"}, "[23]": {"molecular_target": "CDK6/cyclin D3 (Homo sapiens) (UniProt P30281+Q00534)", "test": "Inhibition of wild-type human full length CDK6 (M1 to A326 residues)/cyclin D3 expressed in mammalian expression system assessed as residual activity at 1 uM by Kinomescan method relative to control"}, "[24]": {"molecular_target": "MAP/microtubule affinity-regulating kinase 3 (Homo sapiens) (UniProt P27448)", "test": "Inhibition of wild-type human full length MARK3 (M1 to L729 residues) expressed in bacterial expression system assessed as residual activity at 1 uM by Kinomescan method relative to control"}, "[25]": {"molecular_target": "Fibroblast growth factor receptor 3 (Homo sapiens) (UniProt P22607)", "test": "Inhibition of wild-type human partial length FGFR3 (R442 to S771 residues) expressed in bacterial expression system assessed as residual activity at 1 uM by Kinomescan method relative to control"}, "[26]": {"molecular_target": "Tyrosine-protein kinase ABL2 (Homo sapiens) (UniProt P42684)", "sequence (P42684 whole entry, the tested form may be a part)": "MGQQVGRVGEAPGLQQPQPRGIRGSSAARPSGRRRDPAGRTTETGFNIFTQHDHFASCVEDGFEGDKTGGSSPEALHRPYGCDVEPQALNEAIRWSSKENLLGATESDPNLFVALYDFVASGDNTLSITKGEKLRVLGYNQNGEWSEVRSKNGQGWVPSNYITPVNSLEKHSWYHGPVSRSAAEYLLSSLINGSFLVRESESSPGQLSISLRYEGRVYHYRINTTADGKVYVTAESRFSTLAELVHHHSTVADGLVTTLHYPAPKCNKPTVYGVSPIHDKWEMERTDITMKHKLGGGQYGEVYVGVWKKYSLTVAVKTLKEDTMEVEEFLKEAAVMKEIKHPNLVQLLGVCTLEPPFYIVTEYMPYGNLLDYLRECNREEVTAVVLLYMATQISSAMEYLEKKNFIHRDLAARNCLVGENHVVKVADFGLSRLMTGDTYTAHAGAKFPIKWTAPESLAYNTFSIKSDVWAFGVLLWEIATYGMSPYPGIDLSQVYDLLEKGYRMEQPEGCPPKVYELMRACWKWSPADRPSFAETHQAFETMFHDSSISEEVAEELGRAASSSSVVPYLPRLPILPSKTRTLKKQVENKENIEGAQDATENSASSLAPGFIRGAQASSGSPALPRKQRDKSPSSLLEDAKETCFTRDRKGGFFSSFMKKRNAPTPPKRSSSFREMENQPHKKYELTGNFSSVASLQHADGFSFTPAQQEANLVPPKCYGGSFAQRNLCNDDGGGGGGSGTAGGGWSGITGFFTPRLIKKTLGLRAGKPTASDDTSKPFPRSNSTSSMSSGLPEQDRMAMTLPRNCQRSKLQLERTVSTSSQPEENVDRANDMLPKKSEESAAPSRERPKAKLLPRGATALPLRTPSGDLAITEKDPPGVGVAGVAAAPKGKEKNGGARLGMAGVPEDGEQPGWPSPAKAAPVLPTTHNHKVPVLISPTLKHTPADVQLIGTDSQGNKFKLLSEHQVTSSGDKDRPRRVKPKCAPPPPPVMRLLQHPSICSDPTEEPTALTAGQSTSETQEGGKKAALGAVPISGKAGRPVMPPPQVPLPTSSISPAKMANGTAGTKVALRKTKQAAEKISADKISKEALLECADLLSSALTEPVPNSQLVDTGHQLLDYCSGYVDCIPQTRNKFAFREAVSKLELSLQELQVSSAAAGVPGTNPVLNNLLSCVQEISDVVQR", "test": "Inhibition of wild-type human ABL2 (A248 to G542 residues) expressed in bacterial expression system assessed as residual activity at 1 uM by Kinomescan method relative to control"}, "[27]": {"molecular_target": "Proto-oncogene tyrosine-protein kinase receptor Ret (Homo sapiens) (UniProt P07949)", "test": "Inhibition of wild-type human partial length RET (E713 to D1014 residues) expressed in bacterial expression system assessed as residual activity at 1 uM by Kinomescan method relative to control"}, "[28]": {"molecular_target": "Interleukin-1 receptor-associated kinase 1 (Homo sapiens) (UniProt P51617)", "test": "Inhibition of wild-type human partial length IRAK1 (R194 to S712 residues) expressed in mammalian expression system assessed as residual activity at 1 uM by Kinomescan method relative to control"}}, "note": "pIC50: −log10 of the molar value.", "data": [{"smiles": "CCOc1nc(Nc2ccc(C(=O)N3CCOCC3)cc2OC)nc2[nH]ccc12", "values": [{"measurement": "Activity", "setting": "[1]", "value": 99.3, "unit": "%"}, {"measurement": "pIC50", "setting": "[2]", "value": "< 4.20"}, {"measurement": "Papp", "setting": "[3]", "value": 48, "unit": "×10⁻⁶ cm/s"}, {"measurement": "Activity", "setting": "[4]", "value": 101, "unit": "%"}, {"measurement": "Activity", "setting": "[5]", "value": 98, "unit": "%"}, {"measurement": "Activity", "setting": "[6]", "value": 46.5, "unit": "%"}, {"measurement": "solubility at 4 h", "setting": "[7]", "value": 127, "unit": "µg/mL"}, {"measurement": "Activity", "setting": "[8]", "value": 95.2, "unit": "%"}, {"measurement": "Activity", "setting": "[9]", "value": 96.4, "unit": "%"}, {"measurement": "Activity", "setting": "[10]", "value": 100, "unit": "%"}, {"measurement": "Activity", "setting": "[11]", "value": 94.2, "unit": "%"}, {"measurement": "Activity", "setting": "[12]", "value": 105, "unit": "%"}, {"measurement": "Activity", "setting": "[13]", "value": 50, "unit": "%"}, {"measurement": "Activity", "setting": "[14]", "value": 90.6, "unit": "%"}, {"measurement": "Activity", "setting": "[15]", "value": 106, "unit": "%"}, {"measurement": "AUCt/dose", "setting": "[16]", "value": 1034, "unit": "ng·h/g/mg/kg"}, {"measurement": "Activity", "setting": "[17]", "value": 74, "unit": "%"}, {"measurement": "Activity", "setting": "[18]", "value": 82, "unit": "%"}, {"measurement": "Activity", "setting": "[19]", "value": 100, "unit": "%"}, {"measurement": "Activity", "setting": "[20]", "value": 72.2, "unit": "%"}, {"measurement": "Activity", "setting": "[21]", "value": 98.4, "unit": "%"}, {"measurement": "Activity", "setting": "[22]", "value": 102, "unit": "%"}, {"measurement": "Activity", "setting": "[23]", "value": 96.5, "unit": "%"}, {"measurement": "Activity", "setting": "[24]", "value": 92.4, "unit": "%"}, {"measurement": "Activity", "setting": "[25]", "value": 103, "unit": "%"}, {"measurement": "Activity", "setting": "[26]", "value": 89.4, "unit": "%"}, {"measurement": "Activity", "setting": "[27]", "value": 101, "unit": "%"}, {"measurement": "Activity", "setting": "[28]", "value": 105, "unit": "%"}]}]}
